Results on 4 molecules are retold here after ChEMBL document CHEMBL3638507, “Heteroaromatic compounds as BTK inhibitors” (2015).

The test deals with Tyrosine-protein kinase BTK (Homo sapiens, UniProt Q06187). Kind of test: HTRF Assay: An HTRF assay (Cisbio KinEASE-TK cat #62TKOPEC) was performed to quantitate the ability of test compounds to inhibit BTK mediated phosphorylation of substrate. Assays were assembled in 384 well plates where 6 nM of full-length human His-tagged BTK (Life Technologies cat #PV3587) and test compound at varying concentrations were preincubated for 15 minutes at 28° C. Then, 1 uM of TK substrate-biotin and 30 uM ATP were added and incubated for an additional 30 minutes at 28° C. Phospohrylation was detected by adding 62.5 nM Streptavidin-XL665 and TK-Antibody Cryptate diluted 1:100 in HTRF detection buffer (Cisbio cat #62SDBRDF) and incubated for 60 minutes at RT. The plate was read on an Envision plate reader and the fluoresence is measured at 620 nm (cryptate) and 665 nm (XL665). A ratio is calculated (665/620) and converted to POC relative to control and blank wells.Assay Buffer:50 mM HEPES (Invitrogen #15630), 0.01% Brij-35 (sigma #B4184), 10 mM MgC12 (Sigma M1028), 1 mM EGTA.
Chain of Tyrosine-protein kinase BTK (Q06187 whole entry): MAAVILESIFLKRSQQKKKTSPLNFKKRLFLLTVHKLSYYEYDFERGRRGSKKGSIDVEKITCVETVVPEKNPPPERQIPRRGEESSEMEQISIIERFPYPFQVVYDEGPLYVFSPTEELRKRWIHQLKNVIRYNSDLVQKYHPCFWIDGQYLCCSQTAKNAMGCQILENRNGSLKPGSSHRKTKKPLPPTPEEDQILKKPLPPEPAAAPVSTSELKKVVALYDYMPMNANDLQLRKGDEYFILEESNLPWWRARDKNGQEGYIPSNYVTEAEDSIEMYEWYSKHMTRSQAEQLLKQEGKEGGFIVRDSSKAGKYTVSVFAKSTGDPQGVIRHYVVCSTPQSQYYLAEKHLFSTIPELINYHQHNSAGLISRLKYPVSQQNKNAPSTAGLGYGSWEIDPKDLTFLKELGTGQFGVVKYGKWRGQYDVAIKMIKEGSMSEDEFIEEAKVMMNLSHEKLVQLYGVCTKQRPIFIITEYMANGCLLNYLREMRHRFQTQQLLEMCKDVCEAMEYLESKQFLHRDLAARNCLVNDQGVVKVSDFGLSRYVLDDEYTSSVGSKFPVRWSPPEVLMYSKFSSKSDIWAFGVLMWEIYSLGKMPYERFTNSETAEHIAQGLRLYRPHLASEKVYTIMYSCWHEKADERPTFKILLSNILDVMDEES
As for `C/C=C/C(=O)N1CC2(CC(n3nc(-c4ccc(Oc5ccccc5)cn4)c4c(N)ncnc43)C2)C1`, the IC50 (commonly the concentration at which inhibition is half-maximal) was 65 nM.
In the case of `C=CC(=O)N1CC2(CC(n3nc(-c4ccc(Oc5ccccc5)cn4)c4c(N)ncnc43)C2)C1` it was 1.6 nM; in that of `CC#CC(=O)N1CC2(CC(n3nc(-c4ccc(Oc5ccccc5)cn4)c4c(N)ncnc43)C2)C1`, 1 nM.
Consider `CC#CC(=O)N1CC[C@]2(C1)C[C@H](n1nc(-c3ccc(Oc4ccccc4)cn3)c3c(N)ncnc31)C2`, for which the IC50 is 4 nM.
